Source: ChEMBL document CHEMBL1148849, “Synthesis and structure evaluation of a novel cantharimide and its cytotoxicity on SK-Hep-1 hepatoma cells” (2007)
The source made the active and inactive calls. No cut-off for these calls is given here.

Columns and labels:
LNCaP = assay: Apoptotic effect on LNCap cells assessed as induction of shrinkage at 25 ug/mL after 48 hrs; format: functional, cell-based; conditions: Homo sapiens
SK-HEP1 [1] = assay: Effect on apoptosis in human SK-HEP-1 cells assessed as increase in caspase 3 activation at 25 ug/mL after 48 hrs; format: functional, cell-based
SK-HEP1 [2] = assay: Cytotoxicity against human SK-HEP-1 cells assessed as inducing cell shrinkage after 48 hrs by MTS assay; format: functional, cell-based
SK-HEP1 [3] = assay: Cytotoxicity against human SK-HEP-1 cells assessed as inducing loss of colony formation by MTS assay; format: functional, cell-based
MCF7 = assay: Apoptotic effect on MCF7 cells assessed as induction of shrinkage at 25 ug/mL after 48 hrs; format: functional, cell-based; conditions: Homo sapiens
SK-HEP1 [4] = assay: Effect on apoptosis in human SK-HEP-1 cells at 25 ug/mL after 48 hrs by TUNEL method; format: functional, cell-based
SK-HEP1 [5] = assay: Cytotoxicity against human SK-HEP-1 cells assessed as 50 percent MTS reduction after 48 hrs; format: functional

SMILES | Activity (LNCaP) | Activity (SK-HEP1 [1]) | Activity (SK-HEP1 [2]) | Activity (SK-HEP1 [3]) | Activity (MCF7) | Activity (SK-HEP1 [4]) | Activity (SK-HEP1 [5]) [µg/mL]
COc1ccc2nc(N3C(=O)[C@@]4(C)[C@H]5CC[C@H](O5)[C@@]4(C)C3=O)sc2c1 | Active | Active | Active | Active | Active | Active | 6.25
Cc1ccc2nc(N3C(=O)[C@@]4(C)[C@H]5CC[C@H](O5)[C@@]4(C)C3=O)sc2c1 |  | Active | Active | Active |  | Active | 12.5
